US12338251B2, “Substituted macrocycles useful as kinase inhibitors” (TELIGENE LTD, priority 2019, dated 2025)
Converted amounts (≈) assume the structure as drawn.

Legend:
CYP 3A4 = CYP 3A4 (Homo sapiens (Human), UniProt P08684); test: P450 3A4 assay in human liver microsomes (CYP inhibition); format: in vitro ADME; conditions: for IC50: testosterone probe substrate
Experimental: The final concentrations of DMSO and acetonitrile were equal to or less than 0.1%.
The column temperature was maintained at ambient temperature (25° C.). […] The flow rate was maintained at 0.6 mL/min.

[1] = Stability test for one month, purity by HPLC; format: physicochemical; conditions: HPLC purity after 30 days at 0° C.
[2] = Stability test for one month, purity by HPLC; format: physicochemical; conditions: for Day 30 at 25° C. (purity): HPLC purity after 30 days at 25° C.; for Day 0 (purity): HPLC purity, baseline of stability test
Experimental: Stability test: The compounds were tested for their stability at 25° C. for one month, using HPLC to measure the purity. […] Compound 2 is not stable at −30° C. […] (Table F).

[3] = PK study (bioavailability); format: in vivo; conditions: rats; 1 mg/kg IV and 10 mg/kg orally; parent compound plus major metabolites
Experimental: A representative protocol for the PK (pharmacokinetic) assay was as followed: Compounds were given either IV or orally to the same animals. The dose for each compound was 1 mg/kg (volume 5 ml/kg) IV and 10 mg/kg (volume 10 ml/kg) orally. The formulation for IV was in 10% SOLUTOL® HS 15+90% Phosphate-Buffered Saline at […]. A 100% (0.5% Tween 80 in 0.5% methylcellulose (MC) in water) at […] suspension was used for the oral formulation. Sample collection: for the IV route, plasma samples were collected at the time points of 0.083, 0.25, 0.5, 1, 2, 4, 8 and 24 hr. For the oral route, plasma samples were collected at the time points of 0.25, 0.5, 1, 2, 4, 8 and 24 hr. Total bioavailability is calculated by adding parent compound and major metabolites. Analysis: LC-MS/MS was used to calculate PK parameters: t1/2, tmax, Cmax, Vss and AUC, etc.
The following Table E lists selected compounds and their bioavailability (F).
Compound 3 and 4 have much improved bioavailability (F=100%).

[4] = Solubility measurement (HPLC); format: physicochemical; conditions: for solubility at 30 min: pH 7.0 buffer solution (20 mM), aqueous buffer, thermodynamic from solid
Experimental: Preparation of reference standard solution: 2 mg of Compound was added individually to 100 mL volumetric flask each. The compound was diluted with acetonitrile to 100 mL.
Preparation of sample solution: 2 mg of Compound was added individually to 2 mL eppendorf tube (EP), followed by addition of 1 mL of pH 7.0 or 10.0 buffer solution (20 mM). The solution was shaken for 2 minutes and left for 30 minutes at 25° C. After standing for 30 minutes, precipitate was formed in the bottom of the EP. The solutions were filtered through a 0.2 um membrane filter, and then diluted by 50 times with water.
The standard and sample solutions were injected into the HPLC on a Shim-Pack CLC-ODS C18 column (150 mm×6.0 mm, 5 μm) with the same volume. The mobile phase consisted of acetonitrile with 2% trichloromethane—20 mM KH2PO4 buffer (pH=7.0) at a flow rate of 1 mL/minute (40:60). The detection wavelength is at 264 nm. Calculation: solubility of sample=the concentration of standard×Area of sample×50/Area of standard.

Ba/F3 EML4-ALK-L1196M = test: Cell proliferation assay (CTG), Ba/F3 EML4-ALK-L1196M; format: cell-based; conditions: 72 hours
Experimental: (§1) A Representative Number of Compounds were Assayed Against BAF3 Cell Lines Using the Cell Proliferation Assays:
(§2) Cell Culture and Inoculation:
(§3) 1. Cells in logarithmic growth phase were harvested and counted by platelet counter. Trypan blue exclusion method was used to detect the cell viability to ensure that the cell viability was above 90%.
(§4) 2. Adjust the cell concentration; 90 μL cell suspension was added to 96 well plates respectively.
(§5) 3. Cells in 96-well plate were cultured overnight at 37° C., 5% CO2 and 95% of humidity.
(§6) Drug Dilution and Dosing:
(§7) 1. Prepare 10-fold drug solution with the highest concentration of 100 μM, 9 concentrations and 3.16-fold dilution. Add 10 μL of drug solution to each well of 96-well plate inoculated with cells, and set up 3 duplicate wells for each drug concentration.
(§8) 2. Cells in 96-well plates with drug added were cultured for 72 hours at 37° C., 5% CO2 and 95% of humidity, and then […]-GLO® (CTG) analysis was performed.
(§9) 1. Melt CTG reagent and equilibrate cell plates to room temperature for 30 minutes.
2. […]
(§10) 5. Read the cold light value.
(§11) The data were analyzed by GraphPad Prism 5.0 software, and the dose-effect curve was obtained by fitting the data by nonlinear S-curve regression, and IC50 value was calculated accordingly.
(§12) Cell survival rate (%)=(Lumdrug to be tested−Lumculture solution control)/(Lumcell control−Lumculture solution control)×100%. Lum is luminescence. […]

Ba/F3 EML4-ALK-WT = test: Cell proliferation assay (CTG), Ba/F3 EML4-ALK-WT; format: cell-based; conditions: Mus musculus, BaF3, 72 hours
Experimental: as §1, §2, §3, §4, §5, §6, §7, §8, §9
2. […]
as §10, §11, §12

[5] = tested on: BaF3-SLC34A2-ROS1 cell line xenograft; test: In vivo xenograft assay, subcutaneous BaF3-SLC34A2-ROS1 in nude mice; parameters: species or system Balb/c nude mice; conditions: 5 mg/kg oral gavage once daily; for Tumor weight at Day 20: nude mice, control 2.118 g
Text: A representative protocol for the in vivo experiment is as followed to establish the subcutaneous BaF3—SLC34A2-ROS1 cell line xenograft model in nude mice and to evaluate the in vivo therapeutic efficacy of the compounds:
Animals: Male Balb/c nude mice (6˜8 weeks old) were obtained from SLAC Laboratory Animal, Shanghai, China. Animals were maintained under SPF conditions in sterile filter top cages and housed on HEPA-filtered ventilated racks. Animals received sterile rodent chow and water ad libitum.
Cell line: BaF3—SLC34A2-ROS1, S.C.
Xenograft Models in Athymic Mice: Cells for implantation into athymic mice were harvested and pelleted by centrifugation at 1200 r/min for 5 min. Cells were washed once and resuspended in sterile PBS buffer with 5×10^6 in 200 μl. Then cells were implanted s.c. into the right scapular region of each mouse and allowed to grow to 200-300 mm^3 before the administration of compound.
Preparation of the Dose Formulation: each compound was suspended in 0.5% sodium carboxymethyl cellulose (CMC-Na). […]
Observations: After inoculation, the animals are checked daily for morbidity and mortality. At the time of routine monitoring, the animals are checked for any effects of tumor growth and treatments on normal behavior such as mobility, body weight gain/loss (body weights are measured twice weekly or every other day), eye/hair matting and any other abnormal effect. Death and observed clinical signs are recorded on the basis of the numbers of animals within each subset.
Tumor Size Measurements: Tumor volume was determined by measurement with electronic vernier calipers every 3 days and tumor volume was calculated as the product of its length×width2×0.5. […]
Percentage (%) inhibition values were measured for drug-treated mice compared with vehicle-treated mice and are calculated as follows: Tumor growth inhibition (TGI, %)=100−[MTV treated/MTV control]×100, where MTV is the median tumor volume. Significant differences between the treated versus the control groups (p<0.05) were determined using t test. […]

[6] = One-month toxicity studies in rats; format: in vivo; conditions: 8 mg/kg/day females and 16 mg/kg/day males

Sequence of CYP 3A4 (P08684 whole entry): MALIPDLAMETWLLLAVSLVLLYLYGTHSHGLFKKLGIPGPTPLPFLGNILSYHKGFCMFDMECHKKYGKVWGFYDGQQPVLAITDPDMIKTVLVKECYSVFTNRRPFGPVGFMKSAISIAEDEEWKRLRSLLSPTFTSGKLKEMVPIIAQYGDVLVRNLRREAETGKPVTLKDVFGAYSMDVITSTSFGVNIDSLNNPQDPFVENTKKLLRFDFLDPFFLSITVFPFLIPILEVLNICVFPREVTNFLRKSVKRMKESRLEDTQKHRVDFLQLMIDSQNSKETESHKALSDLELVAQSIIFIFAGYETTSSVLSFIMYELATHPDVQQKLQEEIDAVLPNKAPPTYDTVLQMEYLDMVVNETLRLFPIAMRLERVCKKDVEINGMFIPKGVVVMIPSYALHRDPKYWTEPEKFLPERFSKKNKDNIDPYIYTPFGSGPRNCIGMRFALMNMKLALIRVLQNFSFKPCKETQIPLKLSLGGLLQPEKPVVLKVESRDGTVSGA

SMILES | Day 30 at 0° C. (purity) [1] | Day 30 at 25° C. (purity) [2] | Day 0 (purity) [2] | Stability at 0° C. or 25° C. (in words) ([2]; one month) | solubility at 30 min ([4]; pH 7.0 buffer (20 mM), 25° C.) | IC50 (CYP 3A4) | Tumor weight at Day 20 [5] | further results
C[C@H]1Oc2cc(cnc2NC(=O)CN)-c2c(nn(C)c2C#N)CN(C)C(=O)c2ccc(F)cc21 [Compound 2, reference compound] | 92.58% | 86.14% | 97.28% | – | – | 10 µM | – | Stability at 25° C. (in words) ([2]; 25° C., one month): decomposed significantly; Major impurity A at Day 0 ([2]; HPLC, Day 0): 1.13%; Major impurity B at Day 0 ([2]; HPLC, Day 0): 1.39%; Major impurity A at Day 30 ([2]; HPLC, Day 30 at 25° C.): 3.98%; Major impurity B at Day 30 ([2]; HPLC, Day 30 at 25° C.): 8.34%; Stability at −30° C. (in words) ([2]; −30° C.): not stable; Total F (%) (oral bioavailability) [3]: 49%; Solubility at pH 7.0 ([4]; pH 7.0 buffer (20 mM), 25° C.): 0.091 mg/mL
COC(=O)NCC(=O)Nc1ncc2cc1O[C@H](C)c1cc(F)ccc1C(=O)N(C)Cc1nn(C)c(C#N)c1-2 [Compound 4] | 97.13% | 97.25% | 97.23% | no significant changes | – | – | – | –

More lines, main results first:

Day 30 at 0° C. (purity) [1] | Day 30 at 25° C. (purity) [2] | Day 0 (purity) [2] | Stability at 0° C. or 25° C. (in words) ([2]; one month) | solubility at 30 min ([4]; pH 7.0 buffer (20 mM), 25° C.) | SMILES | IC50 (CYP 3A4) | Tumor weight at Day 20 [5] | further results
99.18% | 99.16% | 99.24% | no significant changes | 772 µg/mL (≈ 1530 µM) | CC(=O)NCC(=O)Nc1ncc2cc1O[C@H](C)c1cc(F)ccc1C(=O)N(C)Cc1nn(C)c(C#N)c1-2 [Compound 3] | 279 µM | 0.327 g | CYP 3A4 inhibition (in words) (CYP 3A4; compared with Lorlatinib and Compound 2): much weaker inhibition; IC50 (Ba/F3 EML4-ALK-L1196M): 0.051 µM; IC50 (Ba/F3 EML4-ALK-WT): 0.0028 µM; Solubility at pH=7.0 (in words) ([4]; compared with compound 2 and Lorlatinib): much higher solubility; Tumor growth inhibition at day 20 (in words) ([5]; compared with Lorlatinib): significant better tumor growth inhibition
99.01% | 99.05% | 99.05% | no significant changes | – | CCOC(=O)NCC(=O)Nc1ncc2cc1O[C@H](C)c1cc(F)ccc1C(=O)N(C)Cc1nn(C)c(C#N)c1-2 [Compound 5] | – | – | –
– | – | – | – | 29 µg/mL (≈ 71.4 µM) | C[C@H]1Oc2cc(cnc2N)-c2c(nn(C)c2C#N)CN(C)C(=O)c2ccc(F)cc21 [Lorlatinib, reference compound] | – | 0.531 g | Prothrombin time [6]: shorten time; #LYMPH and Red blood cell in blood ([6]; end of administration and recovery periods): decreased
